Key:
guinea pig ileon = assay: Relaxant activity on the guinea pig ileon (isolated organ bath); conditions: isolated terminal guinea pig ileon, oxygenated Tyrode liquid, 37° C; for minimal effective concentration: Cavia porcellus, read-out: Relaxant Activity (concentration which caused a suppression of spontaneous contractions and relaxed the organ)
Procedure: The relaxant effect of the test compounds was determined on guinea pig ileon using the following procedure. The terminal portion of the guinea pig ileon was removed and washed with Tyrode solution at 37° C. It was then suspended in a bath of oxygenated Tyrode liquid at 37° C and the contractions were registered on a collector attached to a Sanborn polygraph. The test product was added to bath of the organ with a low volume and the concentration which caused a suppression of spontaneous contractions and relaxed the organ causing a lowering of the line of the base was considered to be relaxant.

[1] = tested on: prostaglandin synthetases of lungs of guinea pigs; assay: Inhibitory effect against biosynthesis of prostaglandins starting with arachidonic acid by prostaglandin synthetases of lungs of guinea pigs (Vane); assay type: biochemical; conditions: guinea pig lung homogenate supernatant, 10 μg arachidonic acid, 30 minutes at 37° C; prostaglandin-like activity read on isolated rat colon; read-out: CI50 (inhibited by 50% the biosynthesis activity)
Text: C. INHIBITORY EFFECT AGAINST BIOSYNTHESIS OF PROSTAGLANDINS SYNTHESIS OF PROSTAGLANDINS STARTING WITH ARACHIDONIC ACID BY MEANS OF PROSTAGLANDIN SYNTHETASES OF LUNGS OF GUINEA PIGS.
This test used the procedure of Vane [Nature New Biology, Vol. 231 (1971), p. 232-235] wherein the lungs of adult guinea pigs (2 per series) were rapidly removed and washed with a modified, iced Bucher medium. The lung tissue was homogenized in a Turrax grinder in a minute and the homogenate was centrifuged for 20 minutes to 1200 g. The supernatant was used as a preparation of prostaglandin synthetases.
A solution of arachidonic acid in ethanol at a concentration of 10 mg/ml was diluted with a 0.2% aqueous sodium carbonate solution and was then diluted further with a modified Bucher medium to obtain a final acid concentration of 200 μg/ml. The biosynthesis inhibitors are put into aqueous or dilute alcohol (20% maximum) solutions. Tubes were prepared containing 1 ml of the prostaglandin synthetases preparation, 10 μg of arachidonic acid and 0.1 ml of inhibiting solution or, for the controls, an equal volume of water or dilute alcohol. The tubes were incubated with stirring for 30 minutes at 37° C in aerobic conditions and each test consisted of a tube containing a biosynthesis inhibitor, one biosynthesis control with incubated arachidonic acid and one control with non-incubated arachidonic acid. The latter control permitted a evaluation of amount of natural prostaglandins present in the ground lung and the results obtained with this control must therefore be taken away from the control of biosynthesis and from all the tests. The reactions were stopped by immension in boiling water until the proteins are coagulated. The dosage of "prostaglandin like" activity was effected biologically on the isolated rat colon suspended in Krebs liquid, mixed to augment the specificity, with antagonists to other contracturant mediators susceptible to interfere. The antagonists were mepyramine, scopolamine, methysergide, phenoxybenzamine and propanolol.
A comparison of the results registered in the presence or absence of a test product permitted the calculation of the percentage of biosynthesis inhibition. The CI50 dose which inhibited by 50% the biosynthesis activity was graphically obtained by straight line representing the percent of inhibition with reference to the incubated controls against the log of the concentration in μg/ml and the results are reported in Table II.

mice = assay: Analgesic activity - stretching provoked by acetic acid (Koster et al); assay type: in vivo; conditions: Mus musculus, 0.25 h, oral, one half hour before intraperitoneal 1% acetic acid 100 mg/kg, 15 minute observation, fasted, read-out: DA50 (dose which reduced the number of stretchings by 50%)
Procedure: The test procedure was that of Koster et al wherein an intraperitoneal injection of aqueous acetic acid in a concentration of 1% at a dose of 100 mg/kg caused in mice repeated movements of stretching and twisting which can persist for more than 6 hours. Analgesics prevent or lessen the syndrome. The test products were orally administered one half hour before the acetic acid injection and the mice were fasted from the day before the test. The stretching were counted for each mouse during a 15 minute observation period beginning right after the acetic acid injection and the analgesic effect was expressed as a percentage of protection with respect to the controls.

| IC50 [1] | SMILES | Relaxant Activity (concentration which caused a suppression of spontaneous contractions and relaxed the organ) (guinea pig ileon) | minimal effective concentration (guinea pig ileon) | ED50 (mice) |
| --- | --- | --- | --- | --- |
|  | CCCCC[C@H](O)/C=C/[C@H]1CC[C@H](O)[C@H]1CO (racemic) [Product A, (1RS, 2SR, 5RS, 3'SR) (1'E) 2,3'-dihydroxy-5-(1'-octenyl)-cyclopentane methonol] | 20 µg/mL |  |  |
| 436 µM | CCCCC[C@@H](/C=C/[C@H]1CC[C@H](O)[C@@H]1C(=O)OCC)OC (relative stereo) [Product D, ethyl (1RS, 2SR, 5RS, 3'SR) (1'E) 2-hydroxy-5-(3'methoxy-1'-octenyl)-cyclopentanecarboxylate] |  | 5 µg/mL |  |
| 137 µM | CCCCCCCCCC(=O)O[C@H](/C=C/[C@H]1CC[C@H](O)[C@@H]1C(=O)OCC)CCCCC (relative stereo) [Product C, ethyl (1RS, 2SR, 5RS, 3'SR) (1'E) 2-hydroxy-5-(3'-decanoyloxy-1'-octenyl)-cyclopentanecarboxylate] |  | 20 µg/mL |  |
| 113 µM | CCCCCCCCCC(=O)O[C@H](/C=C/[C@H]1CC[C@@H](O)[C@@H]1C(=O)OCC)CCCCC (relative stereo) [Product G, ethyl (1RS, 2RS, 5RS, 3'SR) (1'E) 2-hydroxy-5-(3'-decanoyloxy-1'-octenyl)-cyclopentanecarboxylate] |  |  |  |
| 671 µM | CCCCC[C@@H](/C=C/[C@H]1CC[C@@H](O)[C@@H]1C(=O)OCC)OC (relative stereo) [Product E, ethyl (1RS, 2RS, 5RS, 3'SR) (1'E) 2-hydroxy-5(3'-methoxy-1'-octenyl)-cyclopentanecarboxylate] |  | 10 µg/mL |  |
|  | CCCCC[C@@H](/C=C/[C@H]1CC[C@H](O)[C@@H]1C(=O)OCC)OC(=O)c1ccccc1C(=O)O (relative stereo) [Product B, ethyl (1RS, 2SR, 5RS, 3'SR) (1'E) 2-hydroxy-5-(3'-α-hemiphthaloyloxy-1'-octenyl)-cyclopentanecarboxylate] |  |  | ~100 mg/kg |
| 123 µM | CCCCC[C@@H](/C=C/[C@H]1CC[C@H](O)[C@@H]1C(=O)OCC)OC(=O)CCC(=O)O (relative stereo) [Product F, ethyl (1RS, 2SR, 5RS, 3'SR) (1'E) 2-hydroxy-5-(3'-hemisuccinyloxy-1'-octenyl)-cyclopentanecarboxylate] |  |  |  |

From patent US4072755A, “Novel cyclopentanoic acid derivatives” (Roussel UCLAF, priority 1975, dated 1978)
